Assay results as given in patent US20050079152A1, “Methods of elicit, enhance and sustain immune responses against MHC class I-restricted epitopes, for prophylactic or therapeutic purposes” (priority 2003, published 2005).

Tested on: SSX241-49 epitope specific T cells
Experiment: SSX2 tetramer staining in immunized mice
Assay type: in vivo
Conditions: for SSX2 antigen specificity, % of the available CD8 T cells (tetramer): entrained with pCBP plasmid, amplified with peptide analogue; for cross-reactivity with T cells specific for the SSX241-49 epitope: mouse, in vivo
Source text: These analogues are cross-reactive with T cells specific for the SSX241-49 epitope. These examples illustrate that the entrain-and-amplify protocol can elicit a SSX2 antigen specificity that approaches 80% of the available CD8 T cells. The pCBP plasmid and principles of its design are disclosed in U.S. patent application Ser. No. 10/292,413 (Pub. No. 20030228634 A1) entitled EXPRESSION VECTORS ENCODING EPITOPES OF TARGET-ASSOCIATED ANTIGENS AND METHODS FOR THEIR DESIGN, which is hereby incorporated by reference in its entirety. Additional methodology, compositions, peptides, and peptide analogues are disclosed in U.S. Provisional Application No. ______, (Attorney Docket MANNK.038PR), filed on the same date as the instant application, entitled “SSX-2 PEPTIDE ANALOGS;” which is incorporated herein by reference in its entirety. Further methodology, compositions, peptides., and peptide analogues are disclosed in U.S. Provisional Application No. ______, (Attorney Docket MANNK.039PR), filed on the same date as the instant application, entitled “NY-ESO PEPTIDE ANALOGS;” which is incorporated herein by reference in its entirety.

| Substance | SSX2 antigen specificity, % of the available CD8 T cells (tetramer) [%] | cross-reactivity with T cells specific for the SSX241-49 epitope |
| --- | --- | --- |
| SSX241-49 K41F: K41F peptide analogue of SSX2-derived epitope KASEKIFYV (SSX2 41-49) (FASEKIFYV) | ~80 | cross-reactive |
| K41Y: K41Y peptide analogue of SSX2-derived epitope KASEKIFYV (SSX2 41-49) (YASEKIFYV) | ~80 | cross-reactive |
